Among the targets are CDK7 (Homo sapiens, UniProt P50613); MET(M1250T) (Homo sapiens, UniProt P08581, M1250T); LRRK2(G2019S) (Homo sapiens, UniProt Q5S007, G2019S); PRKCD (Homo sapiens, UniProt Q05655); MAP3K15 (Homo sapiens, UniProt Q6ZN16); ROCK1 (Homo sapiens, UniProt Q13464); PRKG1 (Homo sapiens, UniProt Q13976); MYLK4 (Homo sapiens, UniProt Q86YV6); KIT(V559D,V654A) (Homo sapiens, UniProt P10721, V559D/V654A); LIMK2 (Homo sapiens, UniProt P53671); LATS2 (Homo sapiens, UniProt Q9NRM7); SBK1 (Homo sapiens, UniProt Q52WX2); BMPR1A (Homo sapiens, UniProt P36894); TYRO3 (Homo sapiens, UniProt Q06418).

What all share (experiment): biochemical
Holding throughout (set-up): KINOMEscan active-site competition binding, percent of control (100 = no competition)
Holding throughout (details): competition binding, percent control

Test [1] concerns the target T1, JAK3(JH1domain-catalytic) (Homo sapiens, UniProt P52333).
T1 construct: JH1domain-catalytic

Test [2] addresses T2, RSK1(Kin.Dom.2-C-terminal) (Homo sapiens, UniProt Q15418).
T2 construct: gene RPS6KA1; Kin.Dom.2-C-terminal

A further test addresses T3, MEK2 (Homo sapiens, UniProt P36507).
T3 construct: gene MAP2K2

Test [3] deals with T4, RPS6KA5(Kin.Dom.2-C-terminal) (Homo sapiens, UniProt O75582).
T4 construct: Kin.Dom.2-C-terminal
T4 sequence (O75582 whole entry): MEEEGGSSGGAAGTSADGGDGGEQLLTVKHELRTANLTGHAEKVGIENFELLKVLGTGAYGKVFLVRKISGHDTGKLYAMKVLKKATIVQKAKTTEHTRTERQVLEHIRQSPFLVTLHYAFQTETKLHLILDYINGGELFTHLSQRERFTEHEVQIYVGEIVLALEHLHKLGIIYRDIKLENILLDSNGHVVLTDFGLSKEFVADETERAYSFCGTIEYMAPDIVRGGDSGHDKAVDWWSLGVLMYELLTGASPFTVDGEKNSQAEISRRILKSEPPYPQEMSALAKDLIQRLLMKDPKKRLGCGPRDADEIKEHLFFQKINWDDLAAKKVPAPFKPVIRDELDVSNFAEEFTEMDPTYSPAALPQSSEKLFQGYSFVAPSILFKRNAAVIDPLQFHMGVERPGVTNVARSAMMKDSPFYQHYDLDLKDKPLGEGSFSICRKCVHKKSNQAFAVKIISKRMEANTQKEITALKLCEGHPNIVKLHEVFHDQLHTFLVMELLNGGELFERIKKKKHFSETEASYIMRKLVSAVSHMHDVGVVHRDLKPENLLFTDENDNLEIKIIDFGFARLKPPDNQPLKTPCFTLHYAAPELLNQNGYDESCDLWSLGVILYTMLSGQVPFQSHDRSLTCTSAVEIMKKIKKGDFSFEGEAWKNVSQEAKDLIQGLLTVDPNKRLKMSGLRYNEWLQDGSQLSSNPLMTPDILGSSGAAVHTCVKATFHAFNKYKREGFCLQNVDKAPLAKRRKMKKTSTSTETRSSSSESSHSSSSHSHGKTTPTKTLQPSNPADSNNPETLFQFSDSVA

A further test has as its target T5, AMPK-alpha2 (Homo sapiens, UniProt P54646).
T5 construct: gene PRKAA2

The target in a further test is T6, p38-alpha (Homo sapiens, UniProt Q16539).
T6 construct: gene MAPK14
T6 sequence (Q16539 whole entry): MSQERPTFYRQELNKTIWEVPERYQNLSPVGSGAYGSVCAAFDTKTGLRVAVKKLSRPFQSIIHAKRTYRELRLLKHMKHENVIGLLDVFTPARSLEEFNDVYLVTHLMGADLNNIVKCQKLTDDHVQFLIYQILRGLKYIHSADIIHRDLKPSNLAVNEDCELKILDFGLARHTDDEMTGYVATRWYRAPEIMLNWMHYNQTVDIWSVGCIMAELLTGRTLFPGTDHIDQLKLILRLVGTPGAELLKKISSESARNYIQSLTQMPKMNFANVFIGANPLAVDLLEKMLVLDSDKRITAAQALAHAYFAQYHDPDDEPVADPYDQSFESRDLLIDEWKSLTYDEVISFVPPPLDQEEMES

The target of a further test is T7, ERK8 (Homo sapiens, UniProt Q8TD08).
T7 construct: gene MAPK15

In the next test the target is T8, MEK3 (Homo sapiens, UniProt P46734).
T8 construct: gene MAP2K3

Each structure is given as a SMILES string.

Sequence of MAP3K15 (Q6ZN16 whole entry): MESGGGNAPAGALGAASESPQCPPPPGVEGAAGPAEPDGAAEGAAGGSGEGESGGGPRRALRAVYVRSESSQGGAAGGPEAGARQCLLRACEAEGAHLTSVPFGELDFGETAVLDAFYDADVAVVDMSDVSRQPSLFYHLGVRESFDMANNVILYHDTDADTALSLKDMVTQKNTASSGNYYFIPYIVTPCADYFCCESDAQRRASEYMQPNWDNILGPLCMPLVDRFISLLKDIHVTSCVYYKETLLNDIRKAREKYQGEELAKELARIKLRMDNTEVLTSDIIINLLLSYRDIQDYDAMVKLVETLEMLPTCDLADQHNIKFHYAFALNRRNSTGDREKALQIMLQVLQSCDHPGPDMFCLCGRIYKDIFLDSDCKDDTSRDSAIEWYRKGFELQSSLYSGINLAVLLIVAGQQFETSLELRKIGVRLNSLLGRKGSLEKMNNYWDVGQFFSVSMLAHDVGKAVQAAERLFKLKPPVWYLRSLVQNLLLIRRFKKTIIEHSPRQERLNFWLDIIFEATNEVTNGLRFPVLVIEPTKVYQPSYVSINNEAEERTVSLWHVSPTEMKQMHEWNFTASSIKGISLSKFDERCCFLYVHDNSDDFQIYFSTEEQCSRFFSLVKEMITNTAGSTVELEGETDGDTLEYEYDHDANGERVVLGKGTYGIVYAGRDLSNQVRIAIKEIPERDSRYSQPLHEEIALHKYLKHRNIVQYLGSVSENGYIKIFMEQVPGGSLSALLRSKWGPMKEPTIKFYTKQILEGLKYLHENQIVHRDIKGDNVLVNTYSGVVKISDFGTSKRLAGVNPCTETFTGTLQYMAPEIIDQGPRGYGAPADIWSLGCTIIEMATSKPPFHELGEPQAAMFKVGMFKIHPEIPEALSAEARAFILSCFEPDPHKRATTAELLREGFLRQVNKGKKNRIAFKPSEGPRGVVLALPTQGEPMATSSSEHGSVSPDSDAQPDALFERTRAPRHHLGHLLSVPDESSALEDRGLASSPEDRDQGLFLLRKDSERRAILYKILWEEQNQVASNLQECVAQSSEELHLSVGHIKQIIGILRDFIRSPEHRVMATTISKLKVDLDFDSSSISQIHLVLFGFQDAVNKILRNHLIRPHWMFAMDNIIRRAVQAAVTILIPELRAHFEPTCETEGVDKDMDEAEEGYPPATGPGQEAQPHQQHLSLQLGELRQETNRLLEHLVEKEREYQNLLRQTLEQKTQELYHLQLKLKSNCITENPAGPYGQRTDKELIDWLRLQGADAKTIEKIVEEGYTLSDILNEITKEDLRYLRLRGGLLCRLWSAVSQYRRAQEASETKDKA
Sequence of ROCK1 (Q13464 whole entry): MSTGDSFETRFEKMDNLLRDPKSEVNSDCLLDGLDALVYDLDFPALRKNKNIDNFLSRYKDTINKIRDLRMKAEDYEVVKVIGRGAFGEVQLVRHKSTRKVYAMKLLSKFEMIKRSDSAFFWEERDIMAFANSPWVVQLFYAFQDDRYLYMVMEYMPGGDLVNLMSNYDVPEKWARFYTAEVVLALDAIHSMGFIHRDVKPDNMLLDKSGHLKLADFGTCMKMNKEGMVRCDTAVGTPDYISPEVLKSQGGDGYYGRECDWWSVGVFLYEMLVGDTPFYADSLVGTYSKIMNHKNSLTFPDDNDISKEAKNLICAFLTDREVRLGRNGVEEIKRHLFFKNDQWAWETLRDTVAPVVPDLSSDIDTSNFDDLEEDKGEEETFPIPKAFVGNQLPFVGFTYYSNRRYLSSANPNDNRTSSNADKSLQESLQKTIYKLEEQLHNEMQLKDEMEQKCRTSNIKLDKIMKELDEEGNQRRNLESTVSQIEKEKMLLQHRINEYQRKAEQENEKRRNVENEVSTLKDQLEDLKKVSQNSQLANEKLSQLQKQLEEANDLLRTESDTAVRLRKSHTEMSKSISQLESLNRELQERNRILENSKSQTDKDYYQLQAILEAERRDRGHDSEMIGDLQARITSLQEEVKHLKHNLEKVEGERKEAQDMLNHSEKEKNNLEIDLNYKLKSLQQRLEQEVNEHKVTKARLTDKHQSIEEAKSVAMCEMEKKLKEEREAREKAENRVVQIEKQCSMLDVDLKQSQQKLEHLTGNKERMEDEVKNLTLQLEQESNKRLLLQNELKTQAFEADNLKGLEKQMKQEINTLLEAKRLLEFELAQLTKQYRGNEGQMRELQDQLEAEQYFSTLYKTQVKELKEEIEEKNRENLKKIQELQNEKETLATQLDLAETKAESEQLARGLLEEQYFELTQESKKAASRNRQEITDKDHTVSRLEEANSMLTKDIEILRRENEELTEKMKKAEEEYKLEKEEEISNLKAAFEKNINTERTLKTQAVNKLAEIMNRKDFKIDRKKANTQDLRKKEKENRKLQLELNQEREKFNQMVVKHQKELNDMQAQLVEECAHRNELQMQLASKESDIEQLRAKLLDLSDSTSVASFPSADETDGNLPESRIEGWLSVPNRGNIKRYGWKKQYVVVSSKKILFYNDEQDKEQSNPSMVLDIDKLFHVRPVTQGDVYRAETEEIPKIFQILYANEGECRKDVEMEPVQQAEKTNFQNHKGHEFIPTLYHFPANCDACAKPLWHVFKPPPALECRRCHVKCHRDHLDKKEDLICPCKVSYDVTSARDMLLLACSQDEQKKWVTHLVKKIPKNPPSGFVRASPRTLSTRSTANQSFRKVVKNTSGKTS
Sequence of MYLK4 (Q86YV6 whole entry): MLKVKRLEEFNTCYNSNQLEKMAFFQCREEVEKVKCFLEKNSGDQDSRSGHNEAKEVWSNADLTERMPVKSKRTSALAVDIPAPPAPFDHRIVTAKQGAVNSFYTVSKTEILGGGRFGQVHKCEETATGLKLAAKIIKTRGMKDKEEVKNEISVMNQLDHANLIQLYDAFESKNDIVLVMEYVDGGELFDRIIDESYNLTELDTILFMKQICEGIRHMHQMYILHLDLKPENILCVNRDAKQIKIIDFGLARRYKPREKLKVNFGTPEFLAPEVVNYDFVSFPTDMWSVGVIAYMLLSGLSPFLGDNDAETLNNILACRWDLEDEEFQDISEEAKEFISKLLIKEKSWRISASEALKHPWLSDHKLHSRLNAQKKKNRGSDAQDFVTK
Sequence of PRKG1 (Q13976 whole entry): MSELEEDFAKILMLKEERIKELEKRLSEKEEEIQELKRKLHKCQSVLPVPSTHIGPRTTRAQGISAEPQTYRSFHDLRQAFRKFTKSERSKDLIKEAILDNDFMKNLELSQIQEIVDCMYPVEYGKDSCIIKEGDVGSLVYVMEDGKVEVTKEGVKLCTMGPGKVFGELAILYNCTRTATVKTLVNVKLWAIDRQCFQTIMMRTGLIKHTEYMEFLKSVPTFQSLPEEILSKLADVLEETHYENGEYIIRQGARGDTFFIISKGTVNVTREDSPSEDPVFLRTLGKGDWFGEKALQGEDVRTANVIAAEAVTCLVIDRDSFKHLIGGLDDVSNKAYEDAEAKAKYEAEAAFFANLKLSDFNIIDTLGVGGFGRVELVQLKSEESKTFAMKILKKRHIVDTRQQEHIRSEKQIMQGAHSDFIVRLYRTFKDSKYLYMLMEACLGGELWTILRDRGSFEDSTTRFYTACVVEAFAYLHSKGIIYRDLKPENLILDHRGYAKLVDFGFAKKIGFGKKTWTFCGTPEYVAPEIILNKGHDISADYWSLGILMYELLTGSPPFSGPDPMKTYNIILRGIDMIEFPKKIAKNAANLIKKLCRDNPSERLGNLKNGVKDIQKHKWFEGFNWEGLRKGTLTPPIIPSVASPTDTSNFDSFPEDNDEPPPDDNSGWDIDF

With `COc1ccc(-c2cnccc2-c2cnc(NC(=O)C(C)C)s2)c(C(F)(F)F)c1` [CRT0105446, N-{5-[3-(4-Methoxy-2-trifluoromethyl-phenyl)-pyridin-4-yl]-hiazol-2-yl}-isobutyramide], the remaining binding at 10 µM on CDK7 turned out to be 5.8%; in test [1] it was 100%; on MET(M1250T) it was 93%; at LRRK2(G2019S), 86%; at PRKCD, 90%; at MAP3K15, 93%. Also, the remaining binding at 10 µM in test [2] amounted to 43%; at MEK2 it was 92%; on ROCK1 it was 86%; on PRKG1, 100%; at MYLK4 it was 71%; on KIT(V559D,V654A), 100%. Moreover, the remaining binding at 10 µM on LIMK2 stood at 1.1%; in test [3] it was 86%; at AMPK-alpha2 it was 3.9%; at LATS2, 90%; at p38-alpha, 93%; on SBK1, 100%. Besides, the remaining binding at 10 µM is 1.4% at ERK8, 100% at BMPR1A, 83% on MEK3 and 100% on TYRO3.
In the case of `Cc1ccc(-c2cnccc2-c2cnc(Nc3ccc(O)cc3)s2)c(Cl)c1` [CRT0105950, 4-{5-[3-(2-Chloro-4-methyl-phenyl)-pyridin-4-yl]-thiazol-2-ylamino}-phenol], the remaining binding at 10 µM on CDK7 was found to be 32%; in test [1], 33%; on MET(M1250T), 19%; on LRRK2(G2019S), 56%; on PRKCD it was 76%; at MAP3K15, 82%. Moreover, the remaining binding at 10 µM in test [2] turned out to be 27%; on MEK2, 42%; at ROCK1, 79%; on PRKG1 it was 72%; at MYLK4, 9.4%; at KIT(V559D,V654A), 11%. Moreover, the remaining binding at 10 µM was 0% on LIMK2; 89% in [3]; 2% at AMPK-alpha2; 6% on LATS2; 87% at p38-alpha; 79% at SBK1. Moreover, the remaining binding at 10 µM worked out at 1.6% on ERK8, 91% on BMPR1A, 27% at MEK3 and 51% on TYRO3.

Values taken from PMC4770715, “LIM kinase inhibitors disrupt mitotic microtubule organization and impair tumor cell proliferation” (Oncotarget, 2015).
